# Laboratory results as given in PMC12387383, “Screening and Assessment of Hypoglycemic Active Peptide from Natural Edible Pigment Phycobiliprotein Based on Molecular Docking, Network Pharmacology, Enzyme Inhibition Assay Analyses, and Cell Experiments” (Marine Drugs, 2025).
# Peptide text beside a SMILES is read from it.
# How the values were obtained:
# DPP-IV = target: T1, DPP-IV (Homo sapiens, UniProt P27487); test: DPP-IV inhibitor screening kit (fluorescence); type: biochemical; settings: mean ± SD, n = 3
# T1 construct: purchased Elabscience Biotechnology Co., Ltd. E-BC-D007
# T1 sequence (P27487 whole entry, species assumed): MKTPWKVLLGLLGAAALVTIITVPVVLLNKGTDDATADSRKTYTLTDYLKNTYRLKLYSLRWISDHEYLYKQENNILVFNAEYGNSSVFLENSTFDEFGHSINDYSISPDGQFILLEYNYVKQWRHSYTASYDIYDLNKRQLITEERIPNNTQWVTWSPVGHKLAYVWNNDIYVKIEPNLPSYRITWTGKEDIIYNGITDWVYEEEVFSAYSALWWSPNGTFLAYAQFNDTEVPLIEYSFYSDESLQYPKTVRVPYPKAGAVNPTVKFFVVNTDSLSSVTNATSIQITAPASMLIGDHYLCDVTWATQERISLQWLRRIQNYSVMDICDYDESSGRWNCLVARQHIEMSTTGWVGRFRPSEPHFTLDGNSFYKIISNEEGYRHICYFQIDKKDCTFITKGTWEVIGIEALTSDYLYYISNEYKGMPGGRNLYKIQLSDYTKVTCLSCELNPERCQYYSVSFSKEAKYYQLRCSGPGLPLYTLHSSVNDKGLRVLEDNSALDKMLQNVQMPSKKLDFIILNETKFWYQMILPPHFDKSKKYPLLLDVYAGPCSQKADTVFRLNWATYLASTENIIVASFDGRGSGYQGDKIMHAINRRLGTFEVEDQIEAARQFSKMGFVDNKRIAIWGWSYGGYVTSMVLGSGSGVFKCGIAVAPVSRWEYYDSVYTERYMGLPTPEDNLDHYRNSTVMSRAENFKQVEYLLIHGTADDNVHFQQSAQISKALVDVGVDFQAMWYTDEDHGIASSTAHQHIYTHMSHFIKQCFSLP
# Procedure: The hypoglycemic active peptides were synthesized via solid-phase synthesis by Shanghai science peptide Co., Ltd. (Shanghai, China). The purity and molecular weight of the synthesized peptides were confirmed using HPLC-MS. The α-glucosidase inhibitory activity was assessed a modified version of previously reported methods by adding 100 μL of p-NPG (1 mM) after 50 μL of peptide solution (0.125–2.0 mg/mL), and 50 μL of α-glucosidase (1 u/mL) were incubated at 37 °C for 15 min. Absorbance was measured at 405 nm after the reaction was stopped by adding 100 μL of […] after another 30 min of incubation. Similarly, α-amylase inhibitory activity was determined based on established protocols with minor modifications. Briefly, 100 μL of peptide solution (0.125–2.0 mg/mL) was mixed with 100 μL of α-amylase (1 U/mL) and incubated at 37 °C for 10 min. Then, 200 μL of pretreated soluble starch solution (2%, denatured at 95 °C for 8 min) was added, and the mixture was further incubated at 37 °C for 20 min. The reaction was stopped by adding 200 μL of DNS reagent (1% DNS; 12% sodium potassium tartrate in 0.4 M Na2CO3), followed by boiling at 100 °C for 15 min. After cooling, 200 μL of each reaction mixture was transferred to a 96-well plate, and absorbance was measured at 540 nm. DPP-IV inhibitory activity was evaluated using a DPP-IV inhibitor screening kit (Elabscience) following the manufacturer’s instructions with slight modifications. Peptide solutions were prepared at gradient concentrations (0.125, 0.25, 0.5, 1, 1.5, 2, 4, and 10 mg/mL). In a 96-well plate, 20 μL of enzyme solution and 30 μL of peptide sample were added to each well, mixed briefly, and incubated at 37 °C for 10 min. Then, 170 μL of reaction working solution was added, followed by a second incubation at 37 °C for 30 min. Fluorescence intensity was measured at an excitation wavelength of 360 nm and an emission wavelength of 460 nm. The IC50 values were determined by fitting dose–response curves using nonlinear regression analysis with a variable slope in GraphPad Prism 9. All IC50 results are expressed as mean ± SD based on three independent experiments.
# IR-HepG2 cells [1] = test: Intracellular glycogen content in IR-HepG2 cells; type: cell-based; settings: GR-5, SA-6, VF-6 at 2 mmol/L, IR-7 at 1 mmol/L
# Procedure: (§1) The IR-HepG2 cellular model was established as described in Section 3.6. […] Cell viability was evaluated in all groups to determine appropriate peptide concentrations and incubation times based on the criteria of non-cytotoxicity and maximal glucose consumption.
# (§2) Glucose consumption was measured using a commercial glucose assay kit according to the manufacturer’s protocol. Intracellular glycogen content was quantified with a glycogen detection kit, while hexokinase (HK) and pyruvate kinase (PK) enzyme activities were determined using specific assay kits, following the provided instructions.
# IR-HepG2 cells [2] = test: Glucose consumption in IR-HepG2 cells; type: cell-based; settings: 2 mmol/L, IR-HepG2, compared to baseline, positive control
# Procedure: HepG2 cells were maintained in Dulbecco’s Modified Eagle Medium (DMEM) supplemented with 10% fetal bovine serum and 1% penicillin–streptomycin under controlled conditions at 37 °C in a humidified atmosphere containing 5% CO2 for 24 h.
# as §1, §2
# [3] = tested on: hexokinase (HK) in IR-HepG2 cells; test: Hexokinase activity in IR-HepG2 cells; type: cell-based; settings: IR-HepG2, vs model control; GR-5, SA-6, VF-6 at 2 mmol/L, IR-7 at 1 mmol/L
# Procedure: as §1, §2
# [4] = tested on: pyruvate kinase (PK) in IR-HepG2 cells; test: Pyruvate kinase activity in IR-HepG2 cells; type: cell-based; settings: IR-HepG2, vs model control; GR-5, SA-6, VF-6 at 2 mmol/L, IR-7 at 1 mmol/L
# Procedure: as §1, §2
# α-amylase = target: T2, α-amylase (Sus scrofa, UniProt P00690); settings: literature value; cited from earlier work
# T2 sequence (P00690 16-511): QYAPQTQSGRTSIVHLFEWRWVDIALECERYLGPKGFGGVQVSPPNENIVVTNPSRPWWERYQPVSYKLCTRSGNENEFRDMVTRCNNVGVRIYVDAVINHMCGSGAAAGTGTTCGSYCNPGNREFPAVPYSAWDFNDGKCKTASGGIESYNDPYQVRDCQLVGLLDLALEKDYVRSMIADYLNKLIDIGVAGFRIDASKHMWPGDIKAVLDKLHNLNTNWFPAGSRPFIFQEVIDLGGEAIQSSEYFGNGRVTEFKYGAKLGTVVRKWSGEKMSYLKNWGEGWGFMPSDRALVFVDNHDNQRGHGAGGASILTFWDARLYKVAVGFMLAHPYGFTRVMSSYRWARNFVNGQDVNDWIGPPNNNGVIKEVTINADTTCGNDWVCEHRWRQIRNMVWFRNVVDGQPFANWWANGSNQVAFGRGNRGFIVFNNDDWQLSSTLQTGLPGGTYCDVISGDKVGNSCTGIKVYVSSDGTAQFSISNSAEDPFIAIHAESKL
molecule,measurement,setting,value
"CC(C)C[C@H](NC(=O)[C@H](Cc1ccc(O)cc1)NC(=O)[C@H](Cc1ccc(O)cc1)NC(=O)CN)C(=O)N[C@@H](CCCNC(=N)N)C(=O)O [GR-5, Gly-Tyr-Tyr-Leu-Arg] (H-GYYLR-OH; N-terminus and C-terminus assumed)",IC50,DPP-IV,6.97 mM
"CC[C@H](C)[C@H](N)C(=O)N[C@@H](C)C(=O)N[C@@H](CO)C(=O)N[C@@H](Cc1ccc(O)cc1)C(=O)N[C@@H](Cc1ccccc1)C(=O)N[C@@H](CC(=O)O)C(=O)N[C@@H](CCCNC(=N)N)C(=O)O [IR-7, Ile-Ala-Ser-Tyr-Phe-Asp-Arg] (H-IASYFDR-OH; N-terminus and C-terminus assumed)",IC50,DPP-IV,1.04 mM
"C[C@H](NC(=O)[C@H](CCCNC(=N)N)NC(=O)[C@H](CC(=O)O)NC(=O)[C@H](Cc1ccccc1)NC(=O)[C@H](Cc1ccc(O)cc1)NC(=O)[C@@H](N)CO)C(=O)O [SA-6, Ser-Tyr-Phe-Asp-Arg-Ala] (H-SYFDRA-OH; N-terminus and C-terminus assumed)",IC50,DPP-IV,11 mM
"CC(C)[C@H](N)C(=O)N[C@@H](C)C(=O)N[C@@H](Cc1ccccc1)C(=O)NCC(=O)N[C@@H](CCCNC(=N)N)C(=O)N[C@@H](Cc1ccccc1)C(=O)O [VF-6, Val-Ala-Phe-Gly-Arg-Phe] (H-VAFGRF-OH; N-terminus and C-terminus assumed)",IC50,DPP-IV,1.36 mM
CN(C)C(=N)N=C(N)N [metformin],increase in glycogen content,IR-HepG2 cells [1],24.2%
same,increase in glucose consumption,IR-HepG2 cells [2],105%
same,increase in HK activity,[3],54.9%
same,increase in PK activity,[4],21.1%
FPSPPLVA,α-amylase IC50,α-amylase,920 ± 270 µg/mL
GPPMPPPPLP,α-amylase IC50,α-amylase,2020 ± 200 µg/mL
